This note sets out measurements from ChEMBL document CHEMBL4130416, “Glycine-replaced derivatives of [Pro3,DLeu9]TL, a temporin L analogue: Evaluation of antimicrobial, cytotoxic and hemolytic activities” (Eur J Med Chem, 2017).

One data set has as its system Candida albicans. Description: Antimicrobial activity against Candida albicans ATCC 10231 after 18 to 20 hrs by microbroth dilution method. It counts as functional.
For another data set, the system named is Pseudomonas aeruginosa. Description: Antimicrobial activity against Pseudomonas aeruginosa ATCC 27853 after 18 to 20 hrs by microbroth dilution method. The data set is classed as functional.
The test system of a further data set is Pichia kudriavzevii. The data set is described as follows: Antimicrobial activity against Candida krusei ATCC 6258 after 18 to 20 hrs by microbroth dilution method. The data set is classed as functional.
A further data set concerns Staphylococcus aureus. Description: Antimicrobial activity against Staphylococcus aureus Cowan I after 18 to 20 hrs by microbroth dilution method. It counts as functional.
For data set [1], the system named is HaCaT. The data set is described as follows: Cytotoxicity against human HaCaT cells at 12.5 uM after 24 hrs by MTT assay relative to control. It counts as cell-based.
Data set [2] deals with HaCaT. The data set is described as follows: Cytotoxicity against human HaCaT cells at 6.25 uM after 24 hrs by MTT assay relative to control. The data set is classed as cell-based.
The subject of a further data set is Acinetobacter baumannii. Description: Antimicrobial activity against Acinetobacter baumannii ATCC 19606 after 18 to 20 hrs by microbroth dilution method. The note with it: ATCC 19606 = CIP 70.34 = JCM 6841. The data set is classed as functional.
For another data set, the system named is Escherichia coli. The data set is described as follows: Antimicrobial activity against Escherichia coli D21 after 18 to 20 hrs by microbroth dilution method. The data set is classed as functional.
In a further data set the test system is Priestia megaterium. The data set is described as follows: Antimicrobial activity against Bacillus megaterium Bm11 after 18 to 20 hrs by microbroth dilution method. The data set is classed as functional.
The test system of the next data set is Pseudomonas syringae. Description: Antimicrobial activity against Pseudomonas syringae pv tabaci NCPPB 1918 after 18 to 20 hrs by microbroth dilution method. The data set is classed as functional, Pseudomonas amygdali pv. tabaci.
In data set [3] the test system is Staphylococcus epidermidis. The data set is described as follows: Antimicrobial activity against Staphylococcus epidermidis ATCC 12228 after 18 to 20 hrs by microbroth dilution method. It counts as functional.
In data set [4] the test system is HaCaT. The data set is described as follows: Cytotoxicity against human HaCaT cells at 25 uM after 24 hrs by MTT assay relative to control. The data set is classed as cell-based.
For data set [5], the system named is HaCaT. The data set is described as follows: Cytotoxicity against human HaCaT cells at 50 uM after 24 hrs by MTT assay relative to control. It counts as cell-based.

≈ marks a conversion by molar mass, not a printed value. Where a SMILES comes first, the peptide text is derived from it. [ ]: non-standard residue; d: D form.

As to `CCCC[C@@H](NC(=O)[C@@H](CC(C)C)NC(=O)[C@H](Cc1ccccc1)NC(=O)[C@H](CCCCN)NC(=O)[C@H](CO)NC(=O)[C@H](Cc1ccccc1)NC(=O)[C@H](Cc1c[nH]c2ccccc12)NC(=O)[C@@H]1CCCN1C(=O)[C@@H](NC(=O)[C@@H](N)Cc1ccccc1)C(C)C)C(=O)N[C@@H](CCCNC(=N)N)C(=O)NC(C(=O)N[C@@H](CC(C)C)C(N)=O)[C@@H](C)CC` (single isomer, unassigned), the minimum inhibitory concentration (MIC) against Candida albicans turned out to be 3.12 µM (≈ 5.2 µg/mL); in the data set with Pseudomonas aeruginosa it was 50 µM (≈ 83.3 µg/mL); against Pichia kudriavzevii, 1.56 µM (≈ 2.6 µg/mL); against Staphylococcus aureus, 3.12 µM (≈ 5.2 µg/mL); against Acinetobacter baumannii, 6.25 µM (≈ 10.4 µg/mL); in the data set with Escherichia coli it was 25 µM (≈ 41.6 µg/mL). Besides, the MIC was 1.56 µM (≈ 2.6 µg/mL) in the data set on Priestia megaterium, 3.12 µM (≈ 5.2 µg/mL) in the data set on Pseudomonas syringae and 3.12 µM (≈ 5.2 µg/mL) in [3]. For the same compound, the Activity is 39.96% in the data set on HaCaT [1], 15% with HaCaT [2], 72.81% in the data set on HaCaT [4] and 96.64% with HaCaT [5].
Regarding `CC[C@H](C)[C@H](NC(=O)[C@H](CCCNC(=N)N)NC(=O)[C@@H](Cc1c[nH]c2ccccc12)NC(=O)[C@@H](CC(C)C)NC(=O)[C@H](Cc1ccccc1)NC(=O)[C@H](CCCCN)NC(=O)[C@H](CO)NC(=O)[C@H](Cc1ccccc1)NC(=O)[C@H](Cc1c[nH]c2ccccc12)NC(=O)[C@@H]1CCCN1C(=O)[C@@H](NC(=O)[C@@H](N)Cc1ccccc1)C(C)C)C(=O)N[C@@H](CC(C)C)C(N)=O` (H-FVPWFSKF[dL][dW]RIL-NH2), the MIC in the data set on Candida albicans is 3.12 µM (≈ 5.43 µg/mL); in the data set with Pseudomonas aeruginosa, 50 µM (≈ 86.9 µg/mL); in the data set with Pichia kudriavzevii it was 3.12 µM (≈ 5.43 µg/mL); with Staphylococcus aureus it was 3.12 µM (≈ 5.43 µg/mL); against Acinetobacter baumannii, 3.12 µM (≈ 5.43 µg/mL); with Escherichia coli, 25 µM (≈ 43.5 µg/mL). In addition, the MIC is 3.12 µM (≈ 5.43 µg/mL) against Priestia megaterium, 3.12 µM (≈ 5.43 µg/mL) with Pseudomonas syringae and 1.56 µM (≈ 2.71 µg/mL) in [3]. Moreover, the Activity came out at 19.21% in the data set on HaCaT [1], 15% in the data set with HaCaT [2], 35.34% with HaCaT [4] and 96.77% in the data set with HaCaT [5].
